According to US20120129842A1, “BISTHIAZOLE INHIBITORS OF PRO-MATRIX METALLOPROTEINASE ACTIVATION” (priority 2010, published 2012):

Columns and labels:
[1] = biological target: proMMP13(1-268) (SEQ ID NO:7) (Homo sapiens, UniProt P45452); assay: ThermoFluor binding assay with proMMP13(1-268); set-up: 6xHis (C); made in house; settings: pH 7.0
Method in brief: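 Thermal shift binding with 3.5 μM protein and 25 μM 1,8-ANS in 50 mM HEPES pH 7.0, 100 mM NaCl, 0.001% Tween-20, 2.5 mM MgCl2, 300 μM CaCl2. Samples were heated 40 to 90 °C at 1 °C/min, fluorescence read at 500 nm. Tm shifts across an 11-point DMSO dilution series were fitted with DSC-derived thermodynamic parameters.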

[2] = biological target: T1, proMMP9(20-445;ΔFnII) (SEQ ID NO:6) (Homo sapiens, UniProt P14780, DEL216-390); assay: ThermoFluor binding assay with proMMP9(20-445;ΔFnII); settings: pH 7.0
T1 construct: start methionine (N); made in house; host or cells: E. coli BL21(DE3) RIL
T1 sequence (P14780 with tags, fused parts or gaps DEL216-390): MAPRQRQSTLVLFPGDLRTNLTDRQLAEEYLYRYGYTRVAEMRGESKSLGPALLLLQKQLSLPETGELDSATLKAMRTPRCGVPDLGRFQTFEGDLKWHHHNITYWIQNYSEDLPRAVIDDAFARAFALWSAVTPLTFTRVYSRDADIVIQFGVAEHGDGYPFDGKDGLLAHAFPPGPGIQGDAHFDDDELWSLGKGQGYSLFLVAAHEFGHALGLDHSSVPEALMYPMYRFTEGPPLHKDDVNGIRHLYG
Method in brief: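 proMMP9(20-445;ΔFnII) at 2.8 μM with 50 μM 1,8-ANS in 50 mM HEPES pH 7.0, 100 mM NaCl, 0.001% Tween-20, 2.5 mM MgCl2, 300 μM CaCl2; compounds serially diluted in DMSO. Heated 40–90 °C at 1 °C/min, fluorescence read at 500±25 nm. Tm fit by standard equations; binding fit using DSC/TF-derived thermodynamic parameters.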

Cc1nc(C)c(-c2csc(Nc3cc(S(N)(=O)=O)ccc3OC(C)C)n2)s1 [Example 64, 3-(2′,4′-Dimethyl-[4,5′]bithiazolyl-2-ylamino)-4-isopropoxy-benzenesulfonamide.HBr]
Kd [1]: 140 nM | Kd [2]: 100 nM
